Nine compounds from patent publication US4668664A (L'Oreal, priority 1985, dated 1987) can be followed below.

One assay relates to P 37. The assay is described as follows: IC 50 study (inhibiting concentration at 50%), P 37. The conditions noted are these: Cutibacterium acnes, 50% survivors at constant culture time, read-out: IC 50 (inhibiting concentration at 50%; column head printed MIC). The assay is classed as cell-based, propionibacterium acnes.
The subject of another assay is P 37 E⊖. The assay is described as follows: IC 50 study (inhibiting concentration at 50%), P 37 E⊖. The conditions noted are these: Cutibacterium acnes, read-out: IC 50 (inhibiting concentration at 50%; column head printed MIC). The assay is classed as cell-based, propionibacterium acnes.
The next assay relates to P 37 E⊕. The assay is described as follows: IC 50 study (inhibiting concentration at 50%), P 37 E⊕. Format: cell-based, propionibacterium acnes. The conditions noted are these: Cutibacterium acnes, read-out: IC 50 (inhibiting concentration at 50%; column head printed MIC). The source says: (§1) (2) at 1 cm beyond the periphery of the inhibition zone the strains denominated P 37 E⊕ are retained.

In assay [1] the test system is propionibacterium acnes P 37 strain. The assay is described as follows: Minimal Inhibiting Concentration (MIC) by the dilution method, P 37 strain. The assay is classed as cell-based. The conditions noted are these: Cutibacterium acnes, P37STRAIN. The source says: (§2) This method is described and employed by G. A. Denys et al, Antimicrobial Agents and Chemotherapy (1983), 23, 335-337 and J. J. Leyden et al, J. Am. Acad. Dermatol. (1983) 8 (1) 41-5, and utilizes as the strain of propionibacterium acnes, the P 37 strain furnished by Cunliffe and Holland.

The next assay deals with P 37 strain. In words: Growth inhibition zone, disc on gelose medium. The assay is classed as cell-based, propionibacterium acnes. The conditions noted are these: Cutibacterium acnes, 144 h; read-out: growth inhibition zone, total diameter. On the procedure: (§3) After display of a standardized inoculum (DO=1.8 to 450 nm) on gelose medium (RCM+furazolidone), in a Petri dish, a disc of 9 mm in diameter is deposited in its center.
(§4) After 6 days at 36° C. in an anaerobic medium (GAS-PAK system, B.B.L.) a growth inhibition zone of the strain is clearly visible (total diameter=42 mm), the great majority of the colonies being situated at the periphery of the inhibition zone.

Another assay concerns P 37 E⊖ (resistant). The assay is described as follows: Minimal Inhibiting Concentration (MIC) by the dilution method, resistant strain P 37 E⊖. The assay is classed as cell-based, propionibacterium acnes. The conditions noted are these: for MIC: Cutibacterium acnes, read-out: Minimal Inhibiting Concentration (MIC), P 37 E⊖ (resistant), dilution method; for relative activity on strain P 37 E⊖: in words, vs reference fatty esters / erythromycin. How it is done: as §2, §3, §4
On the other hand, at its interior a few colonies clearly appear.
The two types of colonies are then retained by pulling away from the gelose medium (sterilized platinum loop): […]

The subject of another assay is P 37 E⊕ (sensitive). The assay is described as follows: Minimal Inhibiting Concentration (MIC) by the dilution method, sensitive strain P 37 E⊕. Format: cell-based, propionibacterium acnes. The conditions noted are these: Cutibacterium acnes.
Description: as §2, §3
The two types of colonies are then retained by pulling away from the gelose medium (sterilized platinum loop):
as §1

Converted amounts (≈) assume the structure as drawn.

In the case of `CC[C@H]1OC(=O)[C@H](C)[C@@H](O[C@H]2C[C@@](C)(OC)[C@@H](O)[C@H](C)O2)[C@H](C)[C@@H](O[C@@H]2O[C@H](C)C[C@H](N(C)C)[C@H]2O)[C@](C)(O)C[C@@H](C)C(=O)[C@H](C)[C@@H](O)[C@]1(C)O` [Erythromycin, erythromycin A], the IC50 in the assay with P 37 was 50 µg/mL (≈ 68.1 µM); in the assay on P 37 E⊖ it was around 100 µg/mL (≈ 136 µM); in the assay with P 37 E⊕, 5 µg/mL (≈ 6.81 µM). Also, the MIC was 0.78 µg/mL (≈ 1.06 µM) in assay [1], above 50 µg/mL with P 37 E⊖ (resistant) and 0.78 µg/mL (≈ 1.06 µM) against P 37 E⊕ (sensitive). For the same compound, the zone of inhibition at 50 µg/disc in the assay with P 37 strain came to 42 mm. In addition, the “Minimal Inhibiting Concentration (MIC)” value with P 37 E⊖ (resistant) (P 37 E⊖ (resistant), dilution method) is 50 µg/mL.

In the case of `CCCCC/C=C\C/C=C\C/C=C\C/C=C\CCCC(=O)O[C@H]1[C@H](O[C@@H]2[C@@H](C)[C@H](O[C@H]3C[C@@](C)(OC)[C@@H](O)[C@H](C)O3)[C@@H](C)C(=O)O[C@H](CC)[C@@](C)(O)[C@H](O)[C@@H](C)C(=O)[C@H](C)C[C@@]2(C)O)O[C@H](C)C[C@@H]1N(C)C` [O--arachidonoyl-2', O-arachidonoyl-2' erythromycin A], the MIC was above 50 µg/mL in the assay on P 37 E⊖ (resistant) and 6.25 µg/mL (≈ 6.13 µM) against P 37 E⊕ (sensitive).

On to `CCCCC/C=C/C/C=C/CCCCCCCC(=O)O[C@H]1[C@H](O[C@@H]2[C@@H](C)[C@H](O[C@H]3C[C@@](C)(OC)[C@@H](O)[C@H](C)O3)[C@@H](C)C(=O)O[C@H](CC)[C@@](C)(O)[C@H](O)[C@@H](C)C(=O)[C@H](C)C[C@@]2(C)O)O[C@H](C)C[C@@H]1N(C)C` [O--linoelaidoyl-2', O-linoelaidoyl-2' erythromycin A], for which the MIC with P 37 E⊖ (resistant) was 100 µg/mL (≈ 100 µM); against P 37 E⊕ (sensitive), 25 µg/mL (≈ 25.1 µM). Also, the “relative activity on strain P 37 E⊖” value in the assay on P 37 E⊖ (resistant) is “less active”.

As to `CCCCC/C=C/C/C=C/CCCCCCCC(=O)O[C@H]1[C@H](C)O[C@@H](O[C@H]2[C@H](C)[C@@H](O[C@@H]3O[C@H](C)C[C@H](N(C)C)[C@H]3O)[C@](C)(O)C[C@@H](C)C(=O)[C@H](C)[C@@H](O)[C@](C)(O)[C@@H](CC)OC(=O)[C@@H]2C)C[C@@]1(C)OC` [O--linoelaidoyl-4", O-linoelaidoyl-4" erythromycin A], in the assay on P 37 E⊖ (resistant), the MIC was found to be 100 µg/mL (≈ 100 µM) and the “relative activity on strain P 37 E⊖” value was “less active”. Besides, in the assay with P 37 E⊕ (sensitive), the MIC was determined as 25 µg/mL (≈ 25.1 µM).

For `CCCCC/C=C\C/C=C\CCCCCCCC(=O)O[C@H]1[C@H](O[C@@H]2[C@@H](C)[C@H](O[C@H]3C[C@@](C)(OC)[C@@H](O)[C@H](C)O3)[C@@H](C)C(=O)O[C@H](CC)[C@@](C)(O)[C@H](O)[C@@H](C)C(=O)[C@H](C)C[C@@]2(C)O)O[C@H](C)C[C@@H]1N(C)C` [O--linolenoyl-2', O-linoleoyl-2' erythromycin A], the values for the MIC with P 37 E⊖ (resistant) and against P 37 E⊕ (sensitive) were 16 µg/mL (≈ 16.1 µM) and 4 µg/mL (≈ 4.01 µM), respectively.

Consider `CCCCC/C=C\C/C=C\CCCCCCCC(=O)O[C@H]1[C@H](C)O[C@@H](O[C@H]2[C@H](C)[C@@H](O[C@@H]3O[C@H](C)C[C@H](N(C)C)[C@H]3O)[C@](C)(O)C[C@@H](C)C(=O)[C@H](C)[C@@H](O)[C@](C)(O)[C@@H](CC)OC(=O)[C@@H]2C)C[C@@]1(C)OC` [O--linoleoyl-4", O-linoleoyl-4" erythromycin A], for which the MIC with P 37 E⊖ (resistant) came to 28 µg/mL (≈ 28.1 µM); against P 37 E⊕ (sensitive) it was 3.5 µg/mL (≈ 3.51 µM).

`CCCCCCCC/C=C\CCCCCCCC(=O)O[C@H]1[C@H](O[C@@H]2[C@@H](C)[C@H](O[C@H]3C[C@@](C)(OC)[C@@H](O)[C@H](C)O3)[C@@H](C)C(=O)O[C@H](CC)[C@@](C)(O)[C@H](O)[C@@H](C)C(=O)[C@H](C)C[C@@]2(C)O)O[C@H](C)C[C@@H]1N(C)C` [O--oleoyl-2']: the MIC with P 37 E⊖ (resistant) amounted to 100 µg/mL (≈ 100 µM); in the assay with P 37 E⊕ (sensitive), 50 µg/mL (≈ 50.1 µM).

For the compound `CCCCCCCCCCCCCCCCCC(=O)O[C@H]1[C@H](O[C@@H]2[C@@H](C)[C@H](O[C@H]3C[C@@](C)(OC)[C@@H](O)[C@H](C)O3)[C@@H](C)C(=O)O[C@H](CC)[C@@](C)(O)[C@H](O)[C@@H](C)C(=O)[C@H](C)C[C@@]2(C)O)O[C@H](C)C[C@@H]1N(C)C` [O--stearoyl-2'], the MIC in the assay with P 37 E⊖ (resistant) is above 50 µg/mL; against P 37 E⊕ (sensitive) it was below 1.56 µg/mL.

For the compound `CC/C=C\C/C=C\C/C=C\CCCCCCCC(=O)O[C@H]1[C@H](C)O[C@@H](O[C@H]2[C@H](C)[C@@H](O[C@@H]3O[C@H](C)C[C@H](N(C)C)[C@H]3O)[C@](C)(O)C[C@@H](C)C(=O)[C@H](C)[C@@H](O)[C@](C)(O)[C@@H](CC)OC(=O)[C@@H]2C)C[C@@]1(C)OC` [O--α-linolenoyl-4", O-α-linolenoyl-4" erythromycin A], the MIC with P 37 E⊖ (resistant) worked out at 37 µg/mL (≈ 37.2 µM); in the assay with P 37 E⊕ (sensitive), 4.5 µg/mL (≈ 4.53 µM).
